Measured values published in PubChem BioAssay (NCI).
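Growth conditions: 96-well plates. Treatment: test compound, 48 hours, 5 concentrations. Analysis: linear interpolation between bracketing concentrations; unreached endpoints set to highest concentration. GI50: concentration for 50% inhibition of growth. TGI: total growth inhibition.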

Legend:
Experiment in all cases: inhibition of tumour cell growth, NCI panel, 48 h
[1] = tested on: SK-OV-3 ovarian
[2] = tested on: HCT-15 colon
[3] = tested on: NCI-H226 lung
[4] = tested on: SF-295 CNS
[5] = tested on: HCT-116 colon
[6] = tested on: HOP-62 NSCLC
[7] = tested on: A549 NSCLC
[8] = tested on: ACHN renal
[9] = tested on: OVCAR-5 ovarian
[10] = tested on: SNB-75 CNS

SMILES: CCOC1OC(C)(C=C(C#N)C#N)CCC1C (stereo not given)
- TGI [1]: > 100 µM
- TGI [2]: > 71.2 µM
- TGI [3]: 55.2 µM
- TGI [4]: > 100 µM
- TGI [5]: > 100 µM
- TGI [6]: > 100 µM
- TGI [7]: > 100 µM
- TGI [8]: > 100 µM
- TGI [9]: > 100 µM
- TGI [10]: > 100 µM

SMILES: COc1ccccc1CNCCCN1C(=O)c2ccc3c4c(ccc(c24)C1=O)C(=O)N(CCCNCCCCN)C3=O
- GI50 [1]: 0.495 µM
- TGI [1]: 2.86 µM
- GI50 [2]: 1850 nM
- TGI [2]: 10.8 µM
- GI50 [3]: 828 nM
- TGI [3]: 2.55 µM
- GI50 [4]: 0.678 µM
- TGI [4]: 2.79 µM
- GI50 [5]: 216 nM
- TGI [5]: 0.694 µM
- GI50 [6]: 0.546 µM
- TGI [6]: 2.1 µM
- GI50 [7]: 0.29 µM
- TGI [7]: 1.06 µM
- GI50 [8]: 0.576 µM
- TGI [8]: 11.1 µM
- GI50 [9]: 1.06 µM
- TGI [9]: 7.97 µM
- GI50 [10]: 0.344 µM
- TGI [10]: 1.67 µM

SMILES: Cc1ccccc1NC(=O)C(=O)CC(=O)c1sc(-n2nc(-c3ccccc3)cc2-c2ccccc2)nc1C
- TGI [1]: > 100 µM
- TGI [2]: > 100 µM
- TGI [3]: > 100 µM
- TGI [4]: > 100 µM
- TGI [5]: > 100 µM
- TGI [6]: > 100 µM
- TGI [7]: > 100 µM
- TGI [8]: > 100 µM
- TGI [9]: > 100 µM
- TGI [10]: > 100 µM

SMILES: O=C(Nc1c(Cl)cc([N+](=O)[O-])cc1Cl)C(=O)C(C(=O)c1ccncc1)C1OC(=O)c2ccccc21 (stereo not given)
- TGI [1]: > 100 µM
- TGI [2]: > 100 µM
- TGI [3]: > 100 µM
- TGI [4]: > 100 µM
- TGI [5]: > 100 µM
- TGI [6]: > 100 µM
- TGI [7]: > 100 µM
- TGI [8]: > 100 µM
- TGI [9]: > 100 µM
- TGI [10]: > 100 µM

SMILES: COc1cc(/C=C/C(=O)/C=C/c2ccc(-n3ccnc3)cc2)ccc1O
- GI50 [1]: 6.07 µM
- TGI [1]: 36.1 µM
- GI50 [2]: 2480 nM
- TGI [2]: 6.89 µM
- GI50 [3]: 2310 nM
- TGI [3]: 5.8 µM
- GI50 [4]: 14 µM
- TGI [4]: 33 µM
- GI50 [5]: 1450 nM
- TGI [5]: 2.93 µM
- GI50 [6]: 3.12 µM
- TGI [6]: 11.8 µM
- GI50 [7]: 3.19 µM
- TGI [7]: 15.6 µM
- GI50 [8]: 3.27 µM
- TGI [8]: 12.6 µM
- GI50 [9]: 16.6 µM
- TGI [9]: 33.9 µM
- GI50 [10]: 9.96 µM
- TGI [10]: > 100 µM

SMILES: CNc1ccc(CSc2ccc(C)cc2)cc1
- GI50 [1]: > 100 µM
- TGI [1]: > 100 µM
- GI50 [2]: 12600 nM
- TGI [2]: 35.6 µM
- GI50 [3]: 3430 nM
- TGI [3]: 16.4 µM
- GI50 [4]: 22.3 µM
- TGI [4]: > 100 µM
- GI50 [5]: 32900 nM
- TGI [5]: > 100 µM
- GI50 [6]: > 100 µM
- TGI [6]: > 100 µM
- GI50 [7]: 5.34 µM
- TGI [7]: > 100 µM
- GI50 [8]: 34 µM
- TGI [8]: > 100 µM
- GI50 [9]: 71.3 µM
- TGI [9]: > 100 µM
- GI50 [10]: 11.9 µM
- TGI [10]: > 100 µM

SMILES: Fc1cccc(C2ON=C(c3ccccc3)N2C23CC4CC(CC(C4)C2)C3)c1 (stereo not given)
- TGI [1]: > 10 µM
- TGI [2]: > 10 µM
- TGI [3]: > 10 µM
- TGI [4]: > 10 µM
- TGI [5]: > 10 µM
- TGI [6]: > 10 µM
- TGI [7]: > 10 µM
- TGI [8]: > 10 µM
- TGI [9]: > 10 µM
- TGI [10]: > 10 µM

SMILES: O=C(O)c1cc2ccc(Cl)cc2c(O)c1C1=CCCCC1
- TGI [1]: > 100 µM
- TGI [2]: > 100 µM
- TGI [3]: 68.3 µM
- TGI [4]: > 100 µM
- TGI [5]: > 100 µM
- TGI [6]: > 100 µM
- TGI [7]: > 100 µM
- TGI [8]: > 100 µM
- TGI [9]: > 100 µM
- TGI [10]: 34.7 µM
